What was measured:
[1] = test system: mouse alcoholic liver injury model; assay: Effect of product (a) on alcoholic liver injury (Example 6): six months alcohol feeding, then one month of intervention in normal liquid feed; assay type: in vivo, C57 mice; details: one month intervention after six months alcohol; for proportion of fat deposition in the total liver area (oil red O staining): non-intervention group 0.68, FIG. 16; for ALT level in serum: normal diet group 12.03, non-intervention group 44.84, FIG. 14
From the text: (§1) This experiment used the Lieber-DeCarli alcoholic fatty liver modeling method. Lieber-DeCarli feed was purchased from Nantong Trophic Animal Feed High-Tech Co., Ltd. The specific method is as follows: C57 mice (purchased from TROPHIC Animal Feed High-Tech Co. Ltd, China, the same below) were fed with normal solid maintenance feed, adapted to the feeding environment for at least one week, then were fed with maltodextrin diet for a week of transition, and then fed with Lieber-DeCarli feed. The alcohol concentration of Lieber-DeCarli feed was 3% in the first week, and the alcohol concentration was increased by 0.5% every week until reaching an alcohol concentration of 5%. The animals were continued to be fed with feed containing 5% alcohol. C57 mice were fed with Lieber-DeCarli feed for 12 weeks to establish a model of alcoholic liver injury.
30 C57 mice were subjected to adaptive feeding for 1 week, and then randomly divided into a normal diet group (n=6) and an alcohol diet group (n=24) according to body weight. In the alcohol diet group, a mouse alcoholic liver injury model was established by feeding mice with Lieber-DeCarli feed for 24 weeks according to the method of Example 3. After the modeling was completed, the mice were randomly divided into 4 groups, namely the non-intervention group (EtOH(6m)+Normal(1m), n=6), the zinc glutathione intervention group (EtOH(6m)+Zn(GSH)2(1m), n=6), the zinc intervention group (EtOH(6m)+Zn(1m), n=6), and the glutathione intervention group (EtOH(6m)+GSH(1m), n=6). The remaining normal diet group was named the normal group (Normal (7m) group, n=5).
Different intervention substances were added to the normal liquid feed for 1 month. The feed of the zinc glutathione intervention group was added with Zn(GSH)2SO4 at an amount of 1 mg Zn per 10 mL of feed (GSH was 9.35 mg/10 mL) for one month of intervention. The feed of the zinc intervention group was added with ZnSO4 at an amount of 1 mg Zn per 10 mL of feed. The feed of the glutathione intervention group was added with glutathione at an amount of 9.35 mg GSH per 10 mL of feed.
(§2) At the end of the experiment in each group, the animals were weighed, blood was collected, and materials were collected.
(§3) Blood collection: orbital blood collection was performed.
Liver: The animals were killed by cervical dislocation. The mice were cut along the midline of the abdomen to expose the abdomen and the liver was then peeled off. The intact liver was peeled off and separated into the different lobes.
Tissue distribution of each lobe of the liver: The left lobe was separated into three sections and the right lobe was separated into two sections. The first sections of the left lobe and right lobe were used to make pathological sections for histological examination. The second sections of the left lobe and right lobe were used for zinc measurement. The remaining third section of the left lobe was stored in liquid nitrogen for analysis such as molecular detection.
Biochemical analysis of serum: Alanine aminotransferase (ALT) in blood samples was analyzed using a colorimetric method.
Oil red O staining of frozen sections: Frozen sections were stained with ORO stain solution and the nuclei were counterstained with hematoxylin. […] The area of the ORO positive area was measured using Image Pro-Plus 6.0 software, and the ratio of the positive area to the total area was calculated.
(§4) Data processing and statistical analysis: All experimental data herein were analyzed using GraphPad Prime 6 statistical analysis software. Student t test was used for single factor analysis between two groups, and p<0.05 was considered to be statistically different.
Determination method: After blood was collected, the collected whole blood was placed at 25° C. for 30 minutes. After the blood coagulated, it was centrifuged at 3500 rpm for 15 minutes to separate the serum, and various parameters were measured timely. […]

[2] = test system: mouse alcoholic liver injury model; assay: Effect of product (a) on alcoholic liver injury (Example 4): Lieber-DeCarli alcohol diet, three months of intervention; assay type: in vivo, C57 mice
From the text: as §1
30 C57 mice were subjected to adaptive feeding for 1 week, and then randomly divided into a normal diet group (n=9) and an alcohol diet group (n=21) according to body weight. In the alcohol diet group, a mouse alcoholic liver injury model was established by feeding mice with Lieber-DeCarli feed for 12 weeks according to the method of Example 3. After the modeling was completed, the mice were randomly divided into 3 groups, one of which was the pre-intervention group (EtOH (3m), n=3) (meanwhile, 4 animals were randomly selected from the normal diet group to be control of the pre-intervention group (Normal (3m) group, n=4). The pre-intervention group and the pre-intervention control group were collected immediately after the modeling was completed. The other two groups were the non-intervention group (EtOH (6m), n=10), and the zinc/glutathione intervention group (EtOH(6m)/Zn(GSH)2(3m), n=8) respectively. The remaining normal diet group was named the normal group (Normal (6m) group, n=5).
Zn(GSH)2·SO4 was added to the daily Lieber-DeCarli alcohol diet at the amount of 1 mg Zn/10 mL of feed for three months of invention.
as §2, §3
Liver: The animals were killed by cervical dislocation. The mice were cut along the midline of the abdomen to expose the abdomen and the liver was then peeled off. The intact liver was peeled off and separated into the different lobes. The left lobe was separated into three sections using a blade, and the right lobe was separated into two sections.
Tissue distribution of each lobe of the liver: The left lobe was separated into three sections and the right lobe was separated into two sections. The first sections of the left lobe and right lobe were used to make pathological sections for histological examination. The second sections of the left lobe and right lobe were used for zinc measurement. Other lobes were stored in liquid nitrogen for analysis such as molecular detection. […]
Measurement of zinc concentration: The zinc concentration in liver tissue was determined using atomic absorption spectrometry (atomic absorption spectrometer: ICE3500, Thermo Company).
as §4

[3] = EtOH(6 m)/Zn(GSH)2 group, end of experiment

Row | Compound | ALT level relative to the zinc glutathione intervention group [1] | proportion of fat deposition in the total liver area (oil red O staining) [1] | ALT level in serum [1] | fat deposition (oil red O staining of liver) ([2]; EtOH(6m)/Zn(GSH)2(3m) vs non-intervention group, FIG. 9) | Liver weight [2, 3] | Liver weight/final body weight [2, 3] | Final body weight ([2]; EtOH(6 m)/Zn(GSH)2 group, end of experiment, average) | survival rate ([2]; alcohol-fed mice, intervention after modeling, 1 mg Zn/10 mL feed, FIG. 8) | zinc content in the liver ([2]; atomic absorption spectrometry, intervention group, FIG. 12) | area of fat deposition (percentage of fat deposition in the total liver area) ([2]; oil red O staining, vs non-intervention group, FIG. 10) | vesicular steatosis (HE staining) ([2]; vs non-intervention group, FIG. 11)
1 | N[C@@H](CCC(=O)N[C@@H](CS)C(=O)NCC(=O)O)C(=O)O [glutathione, N-(N-L-γ-glutamyl-L-cysteinyl)-glycine] | about 2 times | 0.62 | 22.86 |  |  |  |  |  |  |  | 
2 | O=S(=O)([O-])[O-].[Zn+2] [zinc, ZnSO4] | about 2 times | 0.36 | 22.03 |  |  |  |  |  |  |  | 
3 | [Zn^2+(L-GSH)2]·SO4^2− [Zn(GSH)2·SO4] |  | 0.21 | 8.96 | significantly improved | 1.26 ± 0.25 g | 5.62 ± 0.80% | 22.53 ± 1.67 g | significantly increased | significantly increased | significantly reduced | significantly reduced
